The values below are quoted from earlier work in patent US9169254B2, “Spiroimidazolone derivative” (Chugai Seiyaku Kabushiki Kaisha, priority 2009, dated 2015).

Read-outs that look alike come from different tables or passages of the source.

For data set [1] the following is noted: subcutaneous administration, cited from earlier work.
For data set [2] the following is noted: subcutaneous administration, cited from earlier work. This is another data set of the same source.

On to `CC[C@H](C)[C@H](NC(=O)[C@H](CCC(=O)O)NC(=O)[C@H](CO)NC(=O)[C@@H](NC(=O)[C@@H](N)CO)C(C)C)C(=O)N[C@@H](CCC(N)=O)C(=O)N[C@@H](CC(C)C)C(=O)N[C@@H](CCSC)C(=O)N[C@@H](Cc1cnc[nH]1)C(=O)N[C@@H](CC(N)=O)C(=O)N[C@@H](CC(C)C)C(=O)NCC(=O)N[C@@H](CCCCN)C(=O)N[C@@H](Cc1cnc[nH]1)C(=O)N[C@@H](CC(C)C)C(=O)N[C@@H](CC(N)=O)C(=O)N[C@@H](CO)C(=O)N[C@@H](CCSC)C(=O)N[C@@H](CCC(=O)O)C(=O)N[C@@H](CCCN=C(N)N)C(=O)N[C@H](C(=O)N[C@@H](CCC(=O)O)C(=O)N[C@@H](Cc1c[nH]c2ccccc12)C(=O)N[C@@H](CC(C)C)C(=O)N[C@@H](CCCN=C(N)N)C(=O)N[C@@H](CCCCN)C(=O)N[C@@H](CCCCN)C(=O)N[C@@H](CC(C)C)C(=O)N[C@@H](CCC(N)=O)C(=O)N[C@@H](CC(=O)O)C(=O)N[C@H](C(=O)N[C@@H](Cc1cnc[nH]1)C(=O)N[C@@H](CC(N)=O)C(=O)N[C@@H](Cc1ccccc1)C(=O)O)C(C)C)C(C)C` [human PTH(1-34), teriparatide], for which, in data set [1] (in two years), the “decrease of the risk of nonvertebral fracture” value is on record as 55% and the “decrease of the risk of vertebral fracture” value is 65%. In data set [2] (in one year), the “increase of the spine bone mineral density (BMD)” value is 8%.

B1: human PTH(1-84): "Native human parathyroid hormone is a polypeptide consisting of 84 amino acids" (protein, UniProt P01270 32-115, looked up)
Parathyroid hormone: SVSEIQLMHNLGKHLNSMERVEWLRKKLQDVHNFVALGAPLAPRDAGSQRPRKKEDNVLVESHEKSLGEADKADVNVLTKAKSQ
modifications: Parathyroid hormone
Regarding B1, the “decrease of the risk of vertebral fracture” value in data set [1] (18-month study) is recorded as 58%. For the same molecule, the “increase of the spine bone mineral density (BMD)” value in data set [2] (in 18 months) was 6.9%.
